# Assay results taken from the kinase profiling compilation of Christmann-Franck et al. (2016).
# Experiments:
# Assay in all cases: radiometric filter-binding kinase assay
# BRSK2 (human) = BRSK2 (human) (UniProt Q8IWQ3); conditions: ATP 50 µM
# CAMKK2 (human) = CAMKK2 (human) (UniProt Q96RR4); conditions: ATP 20 µM
# CDK2 CCNA2 (human) = CDK2 CCNA2 (human) (UniProt P20248+P24941); conditions: ATP 20 µM
# CHEK1 (human) = CHEK1 (human) (UniProt O14757); conditions: ATP 20 µM
# CSK (human) = CSK (human) (UniProt P41240); conditions: ATP 20 µM
# DYRK1A (human) = DYRK1A (human) (UniProt Q13627); conditions: ATP 50 µM
# DYRK2 (human) = DYRK2 (human) (UniProt Q92630); conditions: ATP 50 µM
# DYRK3 (human) = DYRK3 (human) (UniProt O43781); conditions: ATP 5 µM
# EPHA2 (human) = EPHA2 (human) (UniProt P29317); conditions: ATP 50 µM
# EPHB3 (human) = EPHB3 (human) (UniProt P54753); conditions: ATP 20 µM
# FGFR1 (human) = FGFR1 (human) (UniProt P11362); conditions: ATP 20 µM
# IKBKE (human) = IKBKE (human) (UniProt Q14164); conditions: ATP 50 µM
# MAPK1 (human) = MAPK1 (human) (UniProt P28482)
# MAPK14 (human) = MAPK14 (human) (UniProt Q16539); conditions: compound 0.1 µM; ATP 50 µM
# Chain of BRSK2 (human) (Q8IWQ3 whole entry, looked up): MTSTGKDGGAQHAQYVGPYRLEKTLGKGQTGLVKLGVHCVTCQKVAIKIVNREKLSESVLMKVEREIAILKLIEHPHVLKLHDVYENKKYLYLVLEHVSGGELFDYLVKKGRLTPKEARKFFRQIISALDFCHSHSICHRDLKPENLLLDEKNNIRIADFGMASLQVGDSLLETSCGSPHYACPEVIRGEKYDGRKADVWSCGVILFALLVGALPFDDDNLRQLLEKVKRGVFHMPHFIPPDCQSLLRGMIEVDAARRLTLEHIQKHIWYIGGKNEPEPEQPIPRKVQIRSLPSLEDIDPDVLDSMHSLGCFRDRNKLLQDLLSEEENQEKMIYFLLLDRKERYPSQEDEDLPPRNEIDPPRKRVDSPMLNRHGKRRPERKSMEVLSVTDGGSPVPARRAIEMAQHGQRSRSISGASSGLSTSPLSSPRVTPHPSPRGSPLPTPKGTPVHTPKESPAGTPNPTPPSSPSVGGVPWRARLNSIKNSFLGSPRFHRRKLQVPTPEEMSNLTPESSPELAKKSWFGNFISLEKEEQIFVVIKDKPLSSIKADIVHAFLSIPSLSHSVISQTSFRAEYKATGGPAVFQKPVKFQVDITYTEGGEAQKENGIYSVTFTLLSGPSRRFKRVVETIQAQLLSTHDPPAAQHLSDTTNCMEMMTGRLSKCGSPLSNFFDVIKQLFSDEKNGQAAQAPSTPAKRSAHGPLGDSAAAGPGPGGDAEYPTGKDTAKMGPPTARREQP
# Chain of CAMKK2 (human) (Q96RR4 whole entry, looked up): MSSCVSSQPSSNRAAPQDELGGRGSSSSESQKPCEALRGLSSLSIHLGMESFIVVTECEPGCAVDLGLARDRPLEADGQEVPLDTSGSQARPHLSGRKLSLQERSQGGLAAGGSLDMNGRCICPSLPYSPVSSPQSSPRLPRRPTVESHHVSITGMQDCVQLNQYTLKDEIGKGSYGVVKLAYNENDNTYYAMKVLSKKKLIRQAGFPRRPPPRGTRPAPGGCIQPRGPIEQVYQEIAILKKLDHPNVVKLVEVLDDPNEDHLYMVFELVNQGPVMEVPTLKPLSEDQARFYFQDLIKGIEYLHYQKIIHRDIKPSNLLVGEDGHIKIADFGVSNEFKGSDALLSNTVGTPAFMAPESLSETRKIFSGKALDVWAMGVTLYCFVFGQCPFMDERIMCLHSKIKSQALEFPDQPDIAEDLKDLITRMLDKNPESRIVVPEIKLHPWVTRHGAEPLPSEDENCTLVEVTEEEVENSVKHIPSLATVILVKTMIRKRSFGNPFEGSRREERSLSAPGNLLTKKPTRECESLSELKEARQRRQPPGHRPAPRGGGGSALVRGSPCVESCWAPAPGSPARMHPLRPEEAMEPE
# Chain of DYRK2 (human) (Q92630 whole entry, looked up): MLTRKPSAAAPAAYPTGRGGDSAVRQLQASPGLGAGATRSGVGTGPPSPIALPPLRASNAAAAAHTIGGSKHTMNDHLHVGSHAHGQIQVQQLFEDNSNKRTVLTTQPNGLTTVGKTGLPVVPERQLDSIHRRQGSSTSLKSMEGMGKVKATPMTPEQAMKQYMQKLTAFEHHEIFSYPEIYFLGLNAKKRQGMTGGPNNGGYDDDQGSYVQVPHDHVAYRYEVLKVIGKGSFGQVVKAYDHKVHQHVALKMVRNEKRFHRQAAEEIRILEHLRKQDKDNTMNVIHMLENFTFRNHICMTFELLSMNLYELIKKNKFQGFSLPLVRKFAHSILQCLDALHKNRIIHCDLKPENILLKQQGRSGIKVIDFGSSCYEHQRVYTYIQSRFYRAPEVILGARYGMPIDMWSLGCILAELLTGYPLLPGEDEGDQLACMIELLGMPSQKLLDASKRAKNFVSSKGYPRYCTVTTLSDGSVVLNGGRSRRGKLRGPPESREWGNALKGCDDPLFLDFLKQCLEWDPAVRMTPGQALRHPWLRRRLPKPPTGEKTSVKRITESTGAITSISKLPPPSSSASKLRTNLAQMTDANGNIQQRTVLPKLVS
# Chain of EPHA2 (human) (P29317 whole entry, looked up): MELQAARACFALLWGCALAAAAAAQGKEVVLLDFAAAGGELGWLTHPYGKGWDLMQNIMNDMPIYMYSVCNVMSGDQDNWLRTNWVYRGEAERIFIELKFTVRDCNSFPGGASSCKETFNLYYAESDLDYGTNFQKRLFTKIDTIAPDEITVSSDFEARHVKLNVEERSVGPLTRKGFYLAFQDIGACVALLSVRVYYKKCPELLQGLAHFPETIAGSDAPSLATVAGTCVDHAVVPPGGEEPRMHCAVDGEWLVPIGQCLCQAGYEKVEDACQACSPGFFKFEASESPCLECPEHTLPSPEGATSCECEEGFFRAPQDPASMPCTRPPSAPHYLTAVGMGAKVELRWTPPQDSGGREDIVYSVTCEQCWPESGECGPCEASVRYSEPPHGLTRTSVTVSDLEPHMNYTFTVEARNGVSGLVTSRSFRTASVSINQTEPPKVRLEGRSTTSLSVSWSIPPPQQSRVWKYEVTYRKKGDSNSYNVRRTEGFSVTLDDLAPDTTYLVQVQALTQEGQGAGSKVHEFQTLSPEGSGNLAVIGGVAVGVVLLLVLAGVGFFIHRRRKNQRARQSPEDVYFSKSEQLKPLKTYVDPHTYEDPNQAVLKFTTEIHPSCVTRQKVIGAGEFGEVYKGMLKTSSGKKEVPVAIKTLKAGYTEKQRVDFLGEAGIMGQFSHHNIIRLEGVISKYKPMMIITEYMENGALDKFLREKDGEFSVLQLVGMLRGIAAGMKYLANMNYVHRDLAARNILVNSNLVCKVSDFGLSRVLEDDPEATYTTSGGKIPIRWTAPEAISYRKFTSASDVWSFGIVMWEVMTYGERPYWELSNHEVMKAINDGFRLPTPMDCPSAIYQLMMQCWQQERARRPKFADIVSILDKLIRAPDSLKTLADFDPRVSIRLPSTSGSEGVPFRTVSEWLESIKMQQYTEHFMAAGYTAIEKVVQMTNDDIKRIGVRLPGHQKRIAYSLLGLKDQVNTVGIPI
# Chain of CHEK1 (human) (O14757 whole entry, looked up): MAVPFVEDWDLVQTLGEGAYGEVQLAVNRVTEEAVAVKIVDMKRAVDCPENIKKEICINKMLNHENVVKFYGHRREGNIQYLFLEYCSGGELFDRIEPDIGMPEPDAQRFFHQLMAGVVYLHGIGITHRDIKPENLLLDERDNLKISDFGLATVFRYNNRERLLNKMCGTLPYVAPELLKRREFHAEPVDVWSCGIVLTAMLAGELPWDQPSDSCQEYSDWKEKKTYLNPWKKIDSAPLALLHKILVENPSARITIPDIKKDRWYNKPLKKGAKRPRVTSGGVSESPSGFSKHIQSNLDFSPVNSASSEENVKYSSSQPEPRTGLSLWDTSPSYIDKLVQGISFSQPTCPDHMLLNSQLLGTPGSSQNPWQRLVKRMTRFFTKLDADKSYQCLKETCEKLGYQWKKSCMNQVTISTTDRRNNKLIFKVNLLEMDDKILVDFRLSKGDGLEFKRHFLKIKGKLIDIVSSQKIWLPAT
# Chain of IKBKE (human) (Q14164 whole entry, looked up): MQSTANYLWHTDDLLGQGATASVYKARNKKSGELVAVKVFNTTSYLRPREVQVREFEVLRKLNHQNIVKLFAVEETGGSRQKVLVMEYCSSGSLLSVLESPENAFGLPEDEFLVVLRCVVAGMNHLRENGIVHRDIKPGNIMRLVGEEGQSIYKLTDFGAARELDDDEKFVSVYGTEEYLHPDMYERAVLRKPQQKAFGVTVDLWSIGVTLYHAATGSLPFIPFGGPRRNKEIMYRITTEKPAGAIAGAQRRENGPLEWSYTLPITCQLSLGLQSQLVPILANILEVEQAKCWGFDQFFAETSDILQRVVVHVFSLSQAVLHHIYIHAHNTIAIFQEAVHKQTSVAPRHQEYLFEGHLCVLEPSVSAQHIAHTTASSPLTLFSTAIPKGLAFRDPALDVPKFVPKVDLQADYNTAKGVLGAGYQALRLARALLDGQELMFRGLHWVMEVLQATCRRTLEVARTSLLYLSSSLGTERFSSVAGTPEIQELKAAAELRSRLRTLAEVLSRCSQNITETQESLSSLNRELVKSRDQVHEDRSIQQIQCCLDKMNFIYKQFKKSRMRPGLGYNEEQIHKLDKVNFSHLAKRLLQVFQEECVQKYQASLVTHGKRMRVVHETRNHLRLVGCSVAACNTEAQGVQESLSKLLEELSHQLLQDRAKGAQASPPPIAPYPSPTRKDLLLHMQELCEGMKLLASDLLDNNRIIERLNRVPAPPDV
# Chain of CSK (human) (P41240 whole entry, looked up): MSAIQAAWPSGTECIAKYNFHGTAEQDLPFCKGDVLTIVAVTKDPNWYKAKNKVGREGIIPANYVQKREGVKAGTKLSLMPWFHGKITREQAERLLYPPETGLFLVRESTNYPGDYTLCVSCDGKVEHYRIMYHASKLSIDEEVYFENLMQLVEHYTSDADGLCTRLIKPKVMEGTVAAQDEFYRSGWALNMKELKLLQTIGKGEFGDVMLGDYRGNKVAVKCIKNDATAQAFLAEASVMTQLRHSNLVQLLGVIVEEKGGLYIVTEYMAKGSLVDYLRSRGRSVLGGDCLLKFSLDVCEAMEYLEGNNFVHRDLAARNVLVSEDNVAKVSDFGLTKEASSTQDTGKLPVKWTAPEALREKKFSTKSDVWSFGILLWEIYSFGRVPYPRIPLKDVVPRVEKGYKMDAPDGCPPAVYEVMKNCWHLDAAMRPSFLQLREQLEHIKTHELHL
# Chain of MAPK1 (human) (P28482 whole entry, looked up): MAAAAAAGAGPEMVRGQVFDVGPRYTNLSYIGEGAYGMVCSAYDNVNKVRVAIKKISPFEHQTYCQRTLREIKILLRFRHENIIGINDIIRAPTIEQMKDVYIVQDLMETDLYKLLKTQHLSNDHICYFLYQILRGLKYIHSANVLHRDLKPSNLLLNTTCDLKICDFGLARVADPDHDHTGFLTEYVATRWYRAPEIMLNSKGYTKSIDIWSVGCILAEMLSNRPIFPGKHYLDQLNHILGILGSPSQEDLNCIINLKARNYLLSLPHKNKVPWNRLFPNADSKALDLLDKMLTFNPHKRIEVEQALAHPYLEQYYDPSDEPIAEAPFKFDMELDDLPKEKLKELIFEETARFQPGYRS
compound,measurement,setting,value
CCc1cncnc1N1CCN(Cc2nc3cc(C(F)(F)F)ccc3[nH]2)CC1,residual activity,BRSK2 (human); compound 0.1 µM,88%
same,residual activity,BRSK2 (human); compound 1.0 µM,84%
same,residual activity,BRSK2 (human); compound 10.0 µM,83%
same,residual activity,CAMKK2 (human); compound 0.1 µM,99%
same,residual activity,CAMKK2 (human); compound 1.0 µM,98%
same,residual activity,CAMKK2 (human); compound 10.0 µM,80%
same,residual activity,CDK2 CCNA2 (human); compound 0.1 µM,102%
same,residual activity,CDK2 CCNA2 (human); compound 1.0 µM,101%
same,residual activity,CDK2 CCNA2 (human); compound 10.0 µM,88%
same,residual activity,CHEK1 (human); compound 0.1 µM,90%
same,residual activity,CHEK1 (human); compound 1.0 µM,83%
same,residual activity,CHEK1 (human); compound 10.0 µM,83%
same,residual activity,CSK (human); compound 0.1 µM,94%
same,residual activity,CSK (human); compound 1.0 µM,93%
same,residual activity,CSK (human); compound 10.0 µM,98%
same,residual activity,DYRK1A (human); compound 0.1 µM,99%
same,residual activity,DYRK1A (human); compound 1.0 µM,94%
same,residual activity,DYRK1A (human); compound 10.0 µM,85%
same,residual activity,DYRK2 (human); compound 0.1 µM,97%
same,residual activity,DYRK2 (human); compound 1.0 µM,104%
same,residual activity,DYRK2 (human); compound 10.0 µM,101%
same,residual activity,DYRK3 (human); compound 0.1 µM,106%
same,residual activity,DYRK3 (human); compound 1.0 µM,92%
same,residual activity,DYRK3 (human); compound 10.0 µM,83%
same,residual activity,EPHA2 (human); compound 0.1 µM,95%
same,residual activity,EPHA2 (human); compound 1.0 µM,86%
same,residual activity,EPHA2 (human); compound 10.0 µM,89%
same,residual activity,EPHB3 (human); compound 0.1 µM,132%
same,residual activity,EPHB3 (human); compound 1.0 µM,139%
same,residual activity,EPHB3 (human); compound 10.0 µM,101%
same,residual activity,FGFR1 (human); compound 0.1 µM,91%
same,residual activity,FGFR1 (human); compound 1.0 µM,92%
same,residual activity,FGFR1 (human); compound 10.0 µM,63%
same,residual activity,IKBKE (human); compound 0.1 µM,103%
same,residual activity,IKBKE (human); compound 1.0 µM,99%
same,residual activity,IKBKE (human); compound 10.0 µM,96%
same,residual activity,"MAPK1 (human); compound 0.1 µM, ATP 5 µM",88%
same,residual activity,"MAPK1 (human); compound 0.1 µM, ATP 50 µM",93%
same,residual activity,"MAPK1 (human); compound 1.0 µM, ATP 5 µM",96%
same,residual activity,"MAPK1 (human); compound 1.0 µM, ATP 50 µM",85%
same,residual activity,"MAPK1 (human); compound 10.0 µM, ATP 5 µM",77%
same,residual activity,"MAPK1 (human); compound 10.0 µM, ATP 50 µM",86%
same,residual activity,MAPK14 (human),86%
